{"source": "patent US10196391B2", "about": "(Hoffmann-La Roche Inc., priority 2014, dated 2019)", "note": "pIC50: −log10 of the molar value."}
{"tested_on": "HBsAg", "experiment": "HBsAg assay (CLIA) in HepG2.2.15 cells", "type": "cell-based, HBV", "settings": "HepG2.2.15 cells, secreted HBsAg, CLIA; read-out: IC50 (HBsAg assay)", "method": "(§1) HepG2.2.15 cells (Acs et al. Proc Natl Acad Sci USA, 84, (1987), 4641-4), a constitutively HBV-expressing cell line were cultured in DMEM+Glutamax-I medium (Invitrogen, Carlsbad, Calif., USA), supplemented with 10% fetal bovine serum (Invitrogen) and G418 (Invitrogen) at a final concentration of 200 mg/L and maintained in 5% CO2 at 37° C.\n(§2) HepG2.2.15 cells were seeded in duplicate into white, 96-well plates at 1.5×10^4 cells/well. The cells were treated with a three-fold serial dilution series of the compounds in DMSO. The final DMSO concentration in all wells was 1% and DMSO was used as no drug control.\n(§3) The HBsAg chemiluminescence immunoassay (CLIA) kit (Autobio Diagnostics Co., Zhengzhou, China, Catalog number: CL0310-2) was used to measure the levels of secreted HBV antigens semi-quantitatively. For the detection 50 μL/well culture supernatant was used and HBsAg was quantified using HBsAg chemiluminescence immunoassay (CLIA) kit (Autobio Diagnostics Co., Zhengzhou, China, Catalog number: CL0310-2), 50 μL of the supernatant was transferred to the CLIA assay plate and 50 μL of enzyme conjugate reagent was added into each well. The plates were sealed and gently agitated for 1 hour at room temperature. The supernatant-enzyme-mixture was discarded and wells were washed 6 times with 300 μL of PBS. The residual liquid was removed by plating the CLIA plate […] on absorbent tissue paper. 25 μL of substrates A and B were added to each well. Luminance was measured using a luminometer (Mithras LB 940 Multimode Microplate Reader) after 10 minutes incubation. Dose-response curves were generated and the IC50 value was extrapolated by using the E-WorkBook Suite (ID Business Solutions Ltd., Guildford, UK). The IC50 was defined as the compound concentration (or conditioned media log dilution) at which HBsAg secretion was reduced by 50% compared to the no drug control.\n(§4) The compounds according to formula I were tested for their capacity to inhibit HBsAg as described herein."}
{"molecule": "2,3-difluoro-5-[2-(2-pyridyl)-7,8-dihydro-5H-pyrido[4,3-d]pyrimidin-6-yl]phenol [Example 18]", "pIC50": 4.66}
{"tested_on": "HBsAg", "experiment": "HBsAg assay (CLIA) in HepG2.2.15 cells", "type": "cell-based, HBV", "settings": "Hepatitis B virus, HepG2.2.15, read-out: IC50 (HBsAg assay)", "method": "as §1, §2, §3, §4"}
{"molecule": "OCCCOc1cc(N2CCc3nc(-c4ccccn4)ncc3C2)cc(F)c1F", "note": "[Example 93, 3-[2,3-difluoro-5-[2-(2-pyridyl)-7,8-dihydro-5H-pyrido[4,3-d]pyrimidin-6-yl]phenoxy]propan-1-ol]", "pIC50": 6.50}
{"molecule": "COc1cc(Cl)nc(N2CCc3nc(-c4ncccn4)ncc3C2)c1", "note": "[Example 108, 6-(6-chloro-4-methoxy-2-pyridyl)-2-pyrimidin-2-yl-7,8-dihydro-5H-pyrido[4,3-d]pyrimidine]", "pIC50": 6.58}
{"molecule": "COc1ncc(Cl)c(N2CCc3nc(-c4ccccn4)ncc3C2)n1", "note": "[Example 69, 6-(5-chloro-2-methoxy-pyrimidin-4-yl)-2-(2-pyridyl)-7,8-dihydro-5H-pyrido[4,3-d]pyrimidine]", "pIC50": 6.00}
{"molecule": "COc1cc(C#N)cc(N2CCc3nc(-c4ncccn4)ncc3C2)c1", "note": "[Example 76, 3-methoxy-5-(2-pyrimidin-2-yl-7,8-dihydro-5H-pyrido[4,3-d]pyrimidin-6-yl)benzonitrile]", "pIC50": 5.82}
{"molecule": "COCCOc1cc(N2CCc3nc(-c4ccccn4)ncc3C2)ccc1OC", "note": "[Example 58, 6-[4-methoxy-3-(2-methoxyethoxy)phenyl]-2-(2-pyridyl)-7,8-dihydro-5H-pyrido[4,3-d]pyrimidine]", "pIC50": 4.69}
{"molecule": "O=C(NCC(F)(F)F)c1cc(F)cc(N2CCc3nc(-c4ncccn4)ncc3C2)c1", "note": "[Example 104, 3-fluoro-5-(2-pyrimidin-2-yl-7,8-dihydro-5H-pyrido[4,3-d]pyrimidin-6-yl)-N-(2,2,2-trifluoroethyl)benzamide]", "pIC50": 5.91}
{"molecule": "COc1cc(N2CCc3nc(-c4ncccn4)ncc3C2)cc(F)c1F", "note": "[Example 26, 6-(3,4-difluoro-5-methoxy-phenyl)-2-pyrimidin-2-yl-7,8-dihydro-5H-pyrido[4,3-d]pyrimidine]", "pIC50": 7.21}
{"molecule": "FC(F)Oc1cccc(N2CCc3nc(-c4ncccn4)ncc3C2)c1", "note": "[Example 63, 6-[3-(difluoromethoxy)phenyl]-2-pyrimidin-2-yl-7,8-dihydro-5H-pyrido[4,3-d]pyrimidine]", "pIC50": 5.71}
{"molecule": "COC(=O)c1cc(Br)ccc1N1CCc2nc(-c3ccccn3)ncc2C1", "note": "[Example 16, methyl 5-bromo-2-[2-(2-pyridyl)-7,8-dihydro-5H-pyrido[4,3-d]pyrimidin-6-yl]benzoate]", "pIC50": 4.86}
{"molecule": "c1ccc(-c2ncc3c(n2)CCN(c2ccccn2)C3)nc1", "note": "[Example 35, 2,6-bis(2-pyridyl)-7,8-dihydro-5H-pyrido[4,3-d]pyrimidine]", "pIC50": 5.09}
{"molecule": "COc1cc(N2CCc3nc(-c4ncccn4)ncc3C2)cc(C(F)(F)F)c1", "note": "[Example 100, 6-[3-methoxy-5-(trifluoromethyl)phenyl]-2-pyrimidin-2-yl-7,8-dihydro-5H-pyrido[4,3-d]pyrimidine]", "pIC50": 6.56}
{"molecule": "CS(=O)(=O)c1ccc(N2CCc3nc(-c4ccc(Cl)cn4)ncc3C2)cc1", "note": "[Example 6, 2-(5-chloro-2-pyridyl)-6-(4-methylsulfonylphenyl)-7,8-dihydro-5H-pyrido[4,3-d]pyrimidine]", "pIC50": 4.73}
{"molecule": "COc1cc(N2CCc3nc(-c4ncccn4)ncc3C2)cc(F)n1", "note": "[Example 112, 6-(2-fluoro-6-methoxy-4-pyridyl)-2-pyrimidin-2-yl-7,8-dihydro-5H-pyrido[4,3-d]pyrimidine]", "pIC50": 6.26}
{"molecule": "CNc1nc(-c2ccccn2)nc2c1CN(c1ccc(S(C)(=O)=O)cc1)CC2", "note": "[Example 88]", "pIC50": 4.58}
{"molecule": "Fc1cc(N2CCc3nc(-c4ncccn4)ncc3C2)cc(F)n1", "note": "[Example 109, 6-(2,6-difluoro-4-pyridyl)-2-pyrimidin-2-yl-7,8-dihydro-5H-pyrido[4,3-d]pyrimidine]", "pIC50": 5.39}
{"molecule": "Fc1cc(Br)cc(N2CCc3nc(-c4ncccn4)ncc3C2)c1", "note": "[Example 41, 6-(3-bromo-5-fluoro-phenyl)-2-pyrimidin-2-yl-7,8-dihydro-5H-pyrido[4,3-d]pyrimidine]", "pIC50": 6.30}
{"molecule": "O=C(NCCCCCO)c1cc(F)cc(N2CCc3nc(-c4ncccn4)ncc3C2)c1", "note": "[Example 107, 3-fluoro-N-(5-hydroxypentyl)-5-(2-pyrimidin-2-yl-7,8-dihydro-5H-pyrido[4,3-d]pyrimidin-6-yl)benzamide]", "pIC50": 5.15}
{"molecule": "COc1cc([N+](=O)[O-])ccc1N1CCc2nc(-c3ccccn3)ncc2C1", "note": "[Example 34, 6-(2-methoxy-4-nitro-phenyl)-2-(2-pyridyl)-7,8-dihydro-5H-pyrido[4,3-d]pyrimidine]", "pIC50": 6.06}
{"molecule": "COc1nc(-c2ccccn2)nc2c1CN(c1ccc(S(C)(=O)=O)cc1)CC2", "note": "[Example 81]", "pIC50": 4.95}
{"molecule": "Fc1ccc(N2CCc3nc(-c4ccccn4)ncc3C2)cc1Br", "note": "[Example 51, 6-(3-bromo-4-fluoro-phenyl)-2-(2-pyridyl)-7,8-dihydro-5H-pyrido[4,3-d]pyrimidine]", "pIC50": 5.27}
{"molecule": "CCCCOc1cc(N2CCc3nc(-c4ccccn4)ncc3C2)ccc1C(=O)O", "note": "[Example 67, 2-butoxy-4-[2-(2-pyridyl)-7,8-dihydro-5H-pyrido[4,3-d]pyrimidin-6-yl]benzoic acid]", "pIC50": 5.11}
{"molecule": "Fc1cc(N2CCc3nc(-c4ccccn4)ncc3C2)cc(OCc2ccccc2)c1F", "note": "[Example 20, 6-(3-benzyloxy-4,5-difluoro-phenyl)-2-(2-pyridyl)-7,8-dihydro-5H-pyrido[4,3-d]pyrimidine]", "pIC50": 5.55}
{"molecule": "COc1c(N2CCc3nc(-c4ncccn4)ncc3C2)ccc(F)c1F", "note": "[Example 30, 6-(3,4-difluoro-2-methoxy-phenyl)-2-pyrimidin-2-yl-7,8-dihydro-5H-pyrido[4,3-d]pyrimidine]", "pIC50": 5.02}
{"molecule": "COc1cc(N2CCc3nc(-c4ncccn4)ccc3C2)cc(F)c1F", "note": "[Example 97, 6-(3,4-difluoro-5-methoxy-phenyl)-2-pyrimidin-2-yl-7,8-dihydro-5H-1,6-naphthyridine]", "pIC50": 4.78}
{"molecule": "CCOc1cc(N2CCc3nc(-c4ccccn4)ncc3C2)ccc1C(=O)O", "note": "[Example 66, 2-ethoxy-4-[2-(2-pyridyl)-7,8-dihydro-5H-pyrido[4,3-d]pyrimidin-6-yl]benzoic acid]", "pIC50": 4.88}
{"molecule": "Cc1ccc(-c2ncc3c(n2)CCN(c2ccc(S(C)(=O)=O)cc2)C3)nc1", "note": "[Example 3, 2-(5-methyl-2-pyridyl)-6-(4-methylsulfonylphenyl)-7,8-dihydro-5H-pyrido[4,3-d]pyrimidine]", "pIC50": 5.04}
{"molecule": "COc1ccc2ccc(N3CCc4nc(-c5ncccn5)ncc4C3)cc2n1", "note": "[Example 75, 6-(2-methoxy-7-quinolyl)-2-pyrimidin-2-yl-7,8-dihydro-5H-pyrido[4,3-d]pyrimidine]", "pIC50": 5.70}
{"molecule": "Fc1cc(F)cc(N2CCc3nc(-c4ccccn4)ncc3C2)c1", "note": "[Example 13, 6-(3,5-difluorophenyl)-2-(2-pyridyl)-7,8-dihydro-5H-pyrido[4,3-d]pyrimidine]", "pIC50": 5.98}
{"molecule": "COc1cc(N2CCc3cc(-c4ncccn4)ncc3C2)cc(F)c1F", "note": "[Example 95, 2-(3,4-difluoro-5-methoxy-phenyl)-6-pyrimidin-2-yl-3,4-dihydro-1H-2,7-naphthyridine]", "pIC50": 7.21}
{"molecule": "COc1cc(N2CCc3nc(-c4ccccn4)ncc3C2)ccc1C(=O)O", "note": "[Example 65, 2-methoxy-4-[2-(2-pyridyl)-7,8-dihydro-5H-pyrido[4,3-d]pyrimidin-6-yl]benzoic acid]", "pIC50": 4.73}
{"molecule": "Clc1ccc(N2CCc3nc(-c4ccccn4)ncc3C2)cc1Cl", "note": "[Example 49, 6-(3,4-dichlorophenyl)-2-(2-pyridyl)-7,8-dihydro-5H-pyrido[4,3-d]pyrimidine]", "pIC50": 5.97}
{"molecule": "Fc1ccc(N2CCc3nc(-c4ccccn4)ncc3C2)cc1F", "note": "[Example 10, 6-(3,4-difluorophenyl)-2-(2-pyridyl)-7,8-dihydro-5H-pyrido[4,3-d]pyrimidine]", "pIC50": 5.57}
{"molecule": "CCOc1ccc(N2CCc3nc(-c4ccccn4)ncc3C2)cc1F", "note": "[Example 54, 6-(4-ethoxy-3-fluoro-phenyl)-2-(2-pyridyl)-7,8-dihydro-5H-pyrido[4,3-d]pyrimidine]", "pIC50": 5.41}
{"molecule": "COc1cc(Cl)cc(N2CCc3nc(-c4ncccn4)ncc3C2)c1", "note": "[Example 98, 6-(3-chloro-5-methoxy-phenyl)-2-pyrimidin-2-yl-7,8-dihydro-5H-pyrido[4,3-d]pyrimidine]", "pIC50": 6.57}
{"molecule": "COc1cc(N2CCc3nc(-c4ncccn4)ncc3C2)cc(Cl)c1F", "note": "[Example 79, 6-(3-chloro-4-fluoro-5-methoxy-phenyl)-2-pyrimidin-2-yl-7,8-dihydro-5H-pyrido[4,3-d]pyrimidine]", "pIC50": 6.54}
{"molecule": "COc1ccc(N2CCc3nc(-c4ccccn4)ncc3C2)c(F)c1F", "note": "[Example 61, 6-(2,3-difluoro-4-methoxy-phenyl)-2-(2-pyridyl)-7,8-dihydro-5H-pyrido[4,3-d]pyrimidine]", "pIC50": 5.52}
{"molecule": "COC(=O)c1cc(F)cc(N2CCc3nc(-c4ncccn4)ncc3C2)c1", "note": "[Example 102, methyl 3-fluoro-5-(2-pyrimidin-2-yl-7,8-dihydro-5H-pyrido[4,3-d]pyrimidin-6-yl)benzoate]", "pIC50": 4.92}
